# Results published in the supplement of paper PMC8967900.
# How the values were obtained:
# Assay in all cases: selective drug sensitivity score (sDSS, relative to normal bone marrow) (sDSS (score)); higher = more potent and effective on the cell line relative to normal bone marrow cells
# Settings in all cases: 72 h
# COG-LL-317 = tested on: COG-LL-317
# KARPAS-45 = tested on: KARPAS-45
# SEM cells = tested on: SEM cells
# NALL-1 = tested on: NALL-1
# MHH-CALL-4 = tested on: MHH-CALL-4
# 697 = tested on: 697
# ALL-SIL = tested on: ALL-SIL
# TMD5 = tested on: TMD5
# KASUMI-2 = tested on: KASUMI-2
# KOPN-8 = tested on: KOPN-8
# DND-41 = tested on: DND-41
# PEER = tested on: PEER
# TANOUE = tested on: TANOUE
# P12-ICHIKAWA = tested on: P12-ICHIKAWA
# MOLT-4 = tested on: MOLT-4
# HPB-ALL = tested on: HPB-ALL
# COG-LL-332h = tested on: COG-LL-332h
# LC4-1 = tested on: LC4-1
# MOLT-14 = tested on: MOLT-14
# COG-LL-355h = tested on: COG-LL-355h
# 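Note: ALL cell lines in 384-well plates, five doses spanning 10,000-fold, each plate scaled between vehicle and 100 µmol/L benzalkonium chloride controls, sDSS an adapted area-under-curve metric.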
structure (smiles),measurement,setting,value
CC[C@]1(O)C[C@H]2CN(CCc3c([nH]c4ccccc34)[C@@](C(=O)OC)(c3cc4c(cc3OC)N(C)[C@H]3[C@@](O)(C(=O)OC)[C@H](OC(C)=O)[C@]5(CC)C=CCN6CC[C@]43[C@@H]65)C2)C1 [Vinblastine] (top concentration 1000 nM),selective drug sensitivity score,COG-LL-317,-0.2
same,selective drug sensitivity score,KARPAS-45,-4.2
same,selective drug sensitivity score,SEM cells,10.8
same,selective drug sensitivity score,NALL-1,-3.8
same,selective drug sensitivity score,MHH-CALL-4,-5.6
same,selective drug sensitivity score,697,12.5
same,selective drug sensitivity score,ALL-SIL,5.2
same,selective drug sensitivity score,TMD5,-4.9
same,selective drug sensitivity score,KASUMI-2,6.7
same,selective drug sensitivity score,KOPN-8,12.8
same,selective drug sensitivity score,DND-41,-0.7
same,selective drug sensitivity score,PEER,-0.9
same,selective drug sensitivity score,TANOUE,-9
same,selective drug sensitivity score,P12-ICHIKAWA,-3.5
same,selective drug sensitivity score,MOLT-4,-3.5
same,selective drug sensitivity score,HPB-ALL,19.7
same,selective drug sensitivity score,COG-LL-332h,-4.2
same,selective drug sensitivity score,LC4-1,13.6
same,selective drug sensitivity score,MOLT-14,-2.5
same,selective drug sensitivity score,COG-LL-355h,-0.6
CC[C@]1(O)C[C@H]2CN(CCc3c([nH]c4ccccc34)[C@@](C(=O)OC)(c3cc4c(cc3OC)N(C=O)[C@H]3[C@@](O)(C(=O)OC)[C@H](OC(C)=O)[C@]5(CC)C=CCN6CC[C@]43[C@@H]65)C2)C1 [Vincristine] (top concentration 1000 nM),selective drug sensitivity score,COG-LL-317,8.92
same,selective drug sensitivity score,KARPAS-45,5.92
same,selective drug sensitivity score,SEM cells,12.7
same,selective drug sensitivity score,NALL-1,-0.88
same,selective drug sensitivity score,MHH-CALL-4,-2.28
same,selective drug sensitivity score,697,17
same,selective drug sensitivity score,ALL-SIL,13.1
same,selective drug sensitivity score,TMD5,-0.08
same,selective drug sensitivity score,KASUMI-2,8.92
same,selective drug sensitivity score,KOPN-8,15.8
same,selective drug sensitivity score,DND-41,2.02
same,selective drug sensitivity score,PEER,6.82
same,selective drug sensitivity score,TANOUE,-11.1
same,selective drug sensitivity score,P12-ICHIKAWA,4.52
same,selective drug sensitivity score,MOLT-4,4.02
same,selective drug sensitivity score,HPB-ALL,14.1
same,selective drug sensitivity score,COG-LL-332h,4.22
same,selective drug sensitivity score,LC4-1,16.7
same,selective drug sensitivity score,MOLT-14,7.72
same,selective drug sensitivity score,COG-LL-355h,1.22
FC(F)c1nc2ccccc2n1-c1nc(N2CCOCC2)nc(N2CCOCC2)n1 [ZSTK474] (top concentration 10000 nM),selective drug sensitivity score,COG-LL-317,1.46
same,selective drug sensitivity score,KARPAS-45,5.96
same,selective drug sensitivity score,SEM cells,5.66
same,selective drug sensitivity score,NALL-1,1.96
same,selective drug sensitivity score,MHH-CALL-4,7.46
same,selective drug sensitivity score,697,8.46
same,selective drug sensitivity score,ALL-SIL,2.46
same,selective drug sensitivity score,TMD5,-1.04
same,selective drug sensitivity score,KASUMI-2,6.76
same,selective drug sensitivity score,KOPN-8,11.9
same,selective drug sensitivity score,DND-41,-3.14
same,selective drug sensitivity score,PEER,-3.64
same,selective drug sensitivity score,TANOUE,-7.04
same,selective drug sensitivity score,P12-ICHIKAWA,3.66
same,selective drug sensitivity score,MOLT-4,7.26
same,selective drug sensitivity score,HPB-ALL,-1.04
same,selective drug sensitivity score,COG-LL-332h,3.86
same,selective drug sensitivity score,LC4-1,-0.44
same,selective drug sensitivity score,MOLT-14,-4.14
same,selective drug sensitivity score,COG-LL-355h,14.4
